Experimental data taken from patent publication US20070173488A1, “Pyrazolothiazole Protein Kinase Modulators” (SGX Pharmaceuticals, Inc., priority 2005, published 2007).

Molecular target: Met (Homo sapiens, UniProt P08581)
Test: MET Luminescence-based Enzyme Assay (Kinase-Glo)
Assay type: biochemical
Design: Sf9 insect cell culture expressing the kinase domain of human Met; 6x Histidine tag (TEV-cleavable) (cleaved yes); made in house; host or cells: Sf9 insect cells
Description: Homogeneous luminescence-based inhibitor screening assays were developed for c-Abl, MET, AurA, and PDK1 kinases (among others). Each of these assays made use of an ATP depletion assay (Kinase-Glo™, Promega Corporation, Madison, Wis.) to quantitate kinase activity. The Kinase-Glo™ format uses a thermostable luciferase to generate luminescent signal from ATP remaining in solution following the kinase reaction. The luminescent signal is inversely correlated with the amount of kinase activity.
Dose response was analyzed using the equation: y=min+{(max−min)/(1 +10^[compound]-logIC50)}, where y is the observed initial slope, max=the slope in the absence of inhibitor, min=the slope at infinite inhibitor, and the IC50 is the [compound] that corresponds to ½ the total observed amplitude (Amplitude=max−min).
The cell pellets produced from half of a 12 L Sf9 insect cell culture expressing the kinase domain of human Met were resuspended in a buffer containing 50 mM Tris-HCl pH 7.7 and 250 mM NaCl, in a volume of approximately 40 ml per 1 L of original culture. One tablet of Roche Complete, EDTA-free protease inhibitor cocktail (Cat# 1873580) was added per 1 L of original culture. The suspension was stirred for 1 hour at 4° C. Debris was removed by centrifugation for 30 minutes at 39,800×g at 4° C. The supernatant was decanted into a 500 ml beaker and 10 ml of 50% slurry of Qiagen Ni-NTA Agarose (Cat# 30250) that had been pre-equilibrated in 50 mM Tris-HCl pH 7.8, […], 10% Glycerol, 10 mM Imidazole, and 10 mM Methionine, were added and stirred for 30 minutes at 4° C. The sample was then poured into a drip column at 4° C. and washed with 10 column volumes of 50 mM Tris-HCl pH 7.8, 500 mM NaCl, 10% Glycerol, 10 mM Imidazole, and 10 mM Methionine. The protein was eluted using a step gradient with two column volumes each of the same buffer containing 50 mM, 200 mM, and 500 mM Imidazole, sequentially. The 6× Histidine tag was cleaved overnight using 40 units of TEV protease (Invitrogen Cat# 10127017) per 1 mg of protein while dialyzing in 50 mM Tris-HCl pH 7.8, 500 mM NaCl, 10% Glycerol, 10 mM Imidazole, and 10 mM Methionine at 4° C. The 6× Histidine tag was removed by passing the sample over a Pharmacia 5 ml IMAC column (Cat# 17-0409-01) charged with Nickel and equilibrated in 50 mM Tris-HCl pH 7.8, 500 mM NaCl, 10% Glycerol, 10 mM Imidazole, and 10 mM Methionine. The cleaved protein bound to the Nickel column at a low affinity and was eluted with a step gradient. The step gradient was run with 15% and then 80% of the B-side (A-side=50 mM Tris-HCl pH 7.8, 500 mM NaCl, 10% Glycerol, 10 mM Imidazole, and 10 mM Methionine; B-side=50 mM Tris-HCl pH 7.8, 500 mM NaCl, 10% Glycerol, 500 mM Imidazole, and 10 mM Methionine) for 4 column volumes each. The Met protein eluted in the first step (15%), whereas the non-cleaved Met and the cleaved Histidine tag eluted in the 80% fractions. The 15% fractions were pooled after SDS-PAGE gel analysis confirmed the presence of cleaved Met; further purification was done by gel filtration chromatography on an Amersham Biosciences HiLoad 16/60 Superdex 200 prep grade (Cat# 17-1069-01) equilibrated in 50 mM Tris-HCl pH 8.5, 150 mM NaCl, ˜10% Glycerol and 5 mM DTT. The cleanest fractions were combined and concentrated to ˜10.4 mg/ml by centrifugation in an Amicon Ultra-15 10,000 Da MWCO centrifugal filter unit (Cat# UFC901024).
MET Luminescence-based Enzyme Assay
Materials: Poly Glu-Tyr (4:1) substrate (Sigma Cat# P-0275), ATP (Sigma Cat#A-3377, FW=551), HEPES buffer, pH 7.5, Bovine serum albumin (BSA) (Roche 92423420), MgCl2, Staurosporine (Streptomyces sp. Sigma Cat#85660-1MG), white Costar 384-well flat-bottom plate (VWR Cat#29444-088). MET kinase (see below), Kinase-Glo™ (Promega Cat#V6712).
Stock Solutions: 10 mg/ml poly Glu-Tyr in water, stored at −20° C.; 100 mM HEPES buffer, pH 7.5 (5 ml 1M stock+45 ml miliQH2O); 10 mM ATP (5.51 mg/ml in dH2O) stored at −20° C. […]

Chain of Met (P08581 1078-1345 limits assumed): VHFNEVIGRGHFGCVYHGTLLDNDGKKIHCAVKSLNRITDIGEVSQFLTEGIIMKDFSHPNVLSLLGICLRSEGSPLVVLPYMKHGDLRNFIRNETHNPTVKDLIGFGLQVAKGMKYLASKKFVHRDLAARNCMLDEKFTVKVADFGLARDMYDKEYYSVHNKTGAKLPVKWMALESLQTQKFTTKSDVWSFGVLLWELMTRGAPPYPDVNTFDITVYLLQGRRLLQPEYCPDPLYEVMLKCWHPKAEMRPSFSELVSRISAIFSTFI

| IC50 | Structure (SMILES) |
| --- | --- |
| 100 to 1000 nM | NC(=O)COc1ccc(-c2cncn2-c2n[nH]c3nc(NC(=O)C4CC4)sc23)c(Cl)c1 [Cyclopropanecarboxylic acid {3-[5-(4-carbamoylmethoxy-2-chloro-phenyl)-imidazol-1-yl]-1H-pyrazolo[3,4-d]thiazol-5-yl}-amide] |
| > 10000 nM | O=C(Nc1cc[nH]n1)Nc1nc2[nH]nc(-n3cncc3-c3ccccc3Cl)c2s1 [1-{3-[5-(2-Chloro-phenyl)-imidazol-1-yl]-1H-pyrazolo[3,4-d]thiazol-5-yl}-3-(1H-pyrazol-3-yl)-urea] |
| > 10000 nM | CS(=O)(=O)c1ccc(F)cc1-c1cncn1-c1n[nH]c2nc(NC(=O)C3CC3)sc12 [Cyclopropanecarboxylic acid {3-[5-(5-fluoro-2-methanesulfonyl-phenyl)-imidazol-1-yl]-1H-pyrazolo[3,4-d]thiazol-5-yl}-amide] |
| 100 to 1000 nM | COc1ccc2nc(Cl)c(-c3cncn3-c3n[nH]c4nc(NC(=O)C5CC5)sc34)cc2c1 [Cyclopropanecarboxylic acid {3-[5-(2-chloro-6-methoxy-quinolin-3-yl)-imidazol-1-yl]-1H-pyrazolo[3,4-d]thiazol-5-yl}-amide] |
| 1000 to 10000 nM | O=C(Nc1nc2[nH]nc(-n3cncc3-c3c(Cl)cccc3Cl)c2s1)C1CC1 [Cyclopropanecarboxylic acid {3-[5-(2,6-dichloro-phenyl)-imidazol-1-yl]-1H-pyrazolo[3,4-d]thiazol-5-yl}-amide] |
| 100 to 1000 nM | O=C(Nc1nc2[nH]nc(-n3cncc3-c3ccccc3Cl)c2s1)C1CC1 [Cyclopropanecarboxylic acid {3-[5-(2-chloro-phenyl)-imidazol-1-yl]-1H-pyrazolo[3,4-d]thiazol-5-yl}-amide] |

The remaining lines, values behind:

| Structure (SMILES) | IC50 |
| --- | --- |
| O=C(Nc1nc2[nH]nc(-n3cncc3-c3cccc(F)c3F)c2s1)C1CC1 [Cyclopropanecarboxylic acid {3-[5-(2,3-difluoro-phenyl)-imidazol-1-yl]-1H-pyrazolo[3,4-d]thiazol-5-yl}-amide] | 1000 to 10000 nM |
| O=C(Nc1nc2[nH]nc(-n3cncc3-c3ccc4ccccc4c3)c2s1)C1CC1 [Cyclopropanecarboxylic acid [3-(5-naphthalen-2-yl-imidazol-1-yl)-1H-pyrazolo[3,4-d]thiazol-5-yl]-amide] | 1000 to 10000 nM |
| O=C(Nc1nc2[nH]nc(-n3cncc3-c3cc(Cl)cc(Cl)c3Cl)c2s1)C1CC1 [Cyclopropanecarboxylic acid {3-[5-(2,3,5-trichloro-phenyl)-imidazol-1-yl]-1H-pyrazolo[3,4-d]thiazol-5-yl}-amide] | 1000 to 10000 nM |
| O=C(Nc1nc2[nH]nc(-n3cncc3-c3ccccn3)c2s1)C1CC1 [Cyclopropanecarboxylic acid [3-(5-pyridin-2-yl-imidazol-1-yl)-1H-pyrazolo[3,4-d]thiazol-5-yl]-amide] | > 10000 nM |
| O=C(Nc1nc2[nH]nc(-n3cncc3-c3ccccc3)c2s1)C1CC1 [Cyclopropanecarboxylic acid [3-(5-phenyl-imidazol-1-yl)-1H-pyrazolo[3,4-d]thiazol-5-yl]-amide] | > 10000 nM |
| O=C(Nc1nc2[nH]nc(-n3cncc3-c3c(Cl)ccc(Cl)c3Cl)c2s1)C1CC1 [Cyclopropanecarboxylic acid {3-[5-(2,3,6-trichloro-phenyl)-imidazol-1-yl]-1H-pyrazolo[3,4-d]thiazol-5-yl}-amide] | 1000 to 10000 nM |
